Laboratory results as given in patent US20260035369A1, “VINCAMINE DERIVATIVES, PREPARATION METHOD THEREFOR, AND USE THEREOF” (SOUTHWEST UNIVERSITY, priority 2023, published 2026).

System: bEnd.3 cells
Test: Cellular ROS levels (DCFH-DA) by single cell analyzer
Type: cell-based
Conditions: 2 hours, FIG. 10
Experimental: (10) The effect of lipid nanoparticles formed from the vincamine derivative (compound 2 (A5-B2-C6) as an example) on cellular ROS levels was detected using a single cell analyzer:
To detect cellular oxidative stress and intracellular reactive oxygen species (ROS) levels, a dichlorodihydrofluorescein diacetate (DCFH-DA) reactive oxygen species assay kit was used to detect the green fluorescence signal of ROS. bEnd.3 cells were seeded in cell culture dishes (50000 cells per dish) and cultured in 1 mL of culture medium for 12 hours. The culture medium in the wells was discarded and replaced with fresh complete medium. Lipid nanoparticles formed from the vincamine derivative (compound 2 (A5-B2-C6)) were added to the cells, and the cells were incubated in the dark at 37° C. in a 5% CO2 atmosphere for 2 hours. The cells in each group were incubated in PBS buffer containing […] DCFH-DA at 37° C. for 30 min. The cells were then washed three times in PBS buffer solution containing 0.1% BSA and fixed on glass slides. ROS levels were detected at the single-cell level using a fiber optic probe with a tip of approximately […]. The tip was inserted into the cells fixed in PBS, and photon counts were continuously detected and calculated within 150 s.

| Compound | cellular ROS levels |
| --- | --- |
| CCCCCCCC/C=C\CCCCCCCC(=O)OCC(C[N+](C)(C)C)OC(=O)CCCCCCC/C=C\CCCCCCCC (centres unmarked) [DOTAP] | high ROS levels |
| CCCCC/C=C\C/C=C\CCCCCCCCC(CCCCCCCC/C=C\C/C=C\CCCCC)OC(=O)CCCN(C)C [Dlin-MC3-DMA] | high ROS levels |
